Experimental data published in patent US4473578A, “β-Lactam antibiotics and their use” (Beecham Group Limited, priority 1979, dated 1984).

How the values were obtained:
Assay in all cases: Antibacterial effectiveness in agar
Assay type in all cases: cell-based
[1] = tested on: Bacteroides fragilis 2118; conditions: Bacteroides fragilis, 2118
Description: (§1) b. Antibacterial effectiveness of the compound of […]

Bacteroides fragilis B3 = conditions: Bacteroides fragilis, B3
Description: as §1

[2] = tested on: Bacteroides fragilis BC16; conditions: Bacteroides fragilis, BC16
Description: as §1

Bacteroides fragilis BC4 = conditions: Bacteroides fragilis, BC4
Description: as §1

[3] = tested on: Bacteroides fragilis VP1 8249; conditions: Bacteroides fragilis, VP18249
Description: as §1

[4] = tested on: Bacteroides fragilis WS12; conditions: Bacteroides fragilis, WS12
Description: as §1

Bacteroides fragilis WS1 = conditions: Bacteroides fragilis, WS1
Description: as §1

[5] = tested on: Bacteroides fragilis WS41; conditions: Bacteroides fragilis, WS41
Description: as §1

[6] = tested on: Citrobacter freundii T221; conditions: Citrobacter freundii, T221
Description: as §1

Citrobacter freundii W18 = conditions: Citrobacter freundii, W18
Description: as §1

[7] = tested on: Enterbacter aerogenes NCTC 10006
Description: as §1

[8] = tested on: Enterbacter aerogenes T660
Description: as §1

[9] = tested on: Enterobacter cloacea NCTC 10005; conditions: Enterobacter, NCTC10005
Description: as §1

[10] = tested on: Enterobacter cloacea T749; conditions: Enterobacter, T749
Description: as §1

Escherichia coli 5 = conditions: Escherichia coli, 5
Description: as §1

Escherichia coli Ba78R+ = conditions: Escherichia coli
Description: as §1

Escherichia coli E8 = conditions: Escherichia coli, E8
Description: as §1

Escherichia coli E96R+ = tested on: Escherichia coli E96R+
Description: as §1

Escherichia coli JT1 = conditions: Escherichia coli, JT1
Description: as §1

Escherichia coli JT20R+ = tested on: Escherichia coli JT20R+
Description: as §1

Escherichia coli JT414C+ = conditions: Escherichia coli
Description: as §1

Escherichia coli JT425C+ = conditions: Escherichia coli
Description: as §1

Escherichia coli JT4R+ = tested on: Escherichia coli JT4R+
Description: as §1

[11] = tested on: Escherichia coli NCTC 15418; conditions: Escherichia coli, NCTC15418
Description: as §1

[12] = tested on: Klebsiella aerogenes I281; conditions: Klebsiella aerogenes, I281
Description: as §1

[13] = tested on: Klebsiella aerogenes R112; conditions: Klebsiella aerogenes, R112
Description: as §1

[14] = tested on: Klebsiella aerogenes T219; conditions: Klebsiella aerogenes, T219
Description: as §1

[15] = tested on: Klebsiella aerogenes Va2R+; conditions: Klebsiella aerogenes
Description: as §1

Proteus mirabilis 889 = conditions: Proteus mirabilis, 889
Description: as §1

Proteus mirabilis T318 = conditions: Proteus mirabilis, T318
Description: as §1

Proteus morganii I = conditions: Morganella morganii
Description: as §1

Proteus morganii T361 = conditions: Morganella morganii, T361
Description: as §1

Proteus rettgeri I = conditions: Providencia rettgeri
Description: as §1

Proteus rettgeri R110 = conditions: Providencia rettgeri, R110
Description: as §1

[16] = tested on: Proteus vulgaris NCTC 4395; conditions: Proteus vulgaris, NCTC4395
Description: as §1

Proteus vulgaris X = conditions: Proteus vulgaris
Description: as §1

[17] = tested on: Pseudomonas aeruginosa Dalgleish; conditions: Pseudomonas aeruginosa
Description: as §1

[18] = tested on: Pseudomonas aeruginosa NCTC 10662; conditions: Pseudomonas aeruginosa, NCTC10662
Description: as §1

[19] = tested on: Pseudomonas aeruginosa W975; conditions: Pseudomonas aeruginosa, W975
Description: as §1

Serratia marcescens SM27 = conditions: Serratia marcescens, SM27
Description: as §1

[20] = tested on: Serratia marcescens Wo146; conditions: Serratia marcescens, WO146
Description: as §1

[21] = tested on: Staphylococcus aureus ATCC 25923; conditions: Staphylococcus aureus, ATCC25923
Description: as §1

[22] = tested on: Staphylococcus aureus ME9+; conditions: Staphylococcus aureus
Description: as §1

[23] = tested on: Staphylococcus aureus Smith; conditions: Staphylococcus aureus
Description: as §1

[24] = tested on: Staphylococcus aureus T150+; conditions: Staphylococcus aureus
Description: as §1

[25] = tested on: Staphylococcus aureus T67+; conditions: Staphylococcus aureus
Description: as §1

[26] = tested on: Streptococcus faecalis C90; conditions: Enterococcus faecalis, C90
Description: as §1

[27] = tested on: Streptococcus faecalis T1101; conditions: Enterococcus faecalis, T1101
Description: as §1

CCSC1=C(C(=O)[O-])N2C(=O)[C@@H]([C@H](C)OS(=O)(=O)[O-])[C@H]2C1.[Na+].[Na+] [Example 14, Disodium (5R,6R)-3-ethylthio-6-[(S)-1-sulphonato-oxyethyl]-7-oxo-1-azabicyclo[3.2.0]hept-2-ene-2-carboxylate]
MIC [1]: 0.2 µg/mL | MIC (Bacteroides fragilis B3): 0.4 µg/mL | MIC [2]: 1.6 µg/mL | MIC (Bacteroides fragilis BC4): 0.8 µg/mL | MIC [3]: 0.4 µg/mL | MIC [4]: 0.2 µg/mL | MIC (Bacteroides fragilis WS1): 6.2 µg/mL | MIC [5]: 0.2 µg/mL | MIC [6]: 1.6 µg/mL | MIC (Citrobacter freundii W18): 1.6 µg/mL | MIC [7]: 0.4 µg/mL | MIC [8]: 0.2 µg/mL | MIC [9]: 6.2 µg/mL | MIC [10]: 6.2 µg/mL | MIC (Escherichia coli 5): ≤ 0.1 µg/mL | MIC (Escherichia coli Ba78R+): 0.2 µg/mL | MIC (Escherichia coli E8): ≤ 0.1 µg/mL | MIC (Escherichia coli E96R+): ≤ 0.1 µg/mL | MIC (Escherichia coli JT1): ≤ 0.1 µg/mL | MIC (Escherichia coli JT20R+): 0.8 µg/mL | MIC (Escherichia coli JT414C+): 0.2 µg/mL | MIC (Escherichia coli JT425C+): ≤ 0.1 µg/mL | MIC (Escherichia coli JT4R+): 0.4 µg/mL | MIC [11]: ≤ 0.1 µg/mL | MIC [12]: ≤ 0.1 µg/mL | MIC [13]: ≤ 0.1 µg/mL | MIC [14]: ≤ 0.1 µg/mL | MIC [15]: 0.8 µg/mL | MIC (Proteus mirabilis 889): 0.8 µg/mL | MIC (Proteus mirabilis T318): 0.4 µg/mL | MIC (Proteus morganii I): 0.4 µg/mL | MIC (Proteus morganii T361): 0.4 µg/mL | MIC (Proteus rettgeri I): 0.4 µg/mL | MIC (Proteus rettgeri R110): 0.2 µg/mL | MIC [16]: 0.2 µg/mL | MIC (Proteus vulgaris X): 0.4 µg/mL | MIC [17]: 50 µg/mL | MIC [18]: 50 µg/mL | MIC [19]: 100 µg/mL | MIC (Serratia marcescens SM27): 0.4 µg/mL | MIC [20]: 1.6 µg/mL | MIC [21]: 0.4 µg/mL | MIC [22]: 1.6 µg/mL | MIC [23]: 0.4 µg/mL | MIC [24]: 0.4 µg/mL | MIC [25]: 0.8 µg/mL | MIC [26]: 12.5 µg/mL | MIC [27]: 12.5 µg/mL
